Patent publication US9884031B2, “Use of HDAC inhibitors for treatment of cardiac rhythm disorders” (THE TRUSTEES OF THE UNIVERSITY OF PENNSYLVANIA, priority 2007, dated 2018)
Entries after “also recorded” stand apart in the source; their conditions may differ. Marks after values point to notes of the source that are not given here.

Key:
[1] = system: Hop transgenic mice (Hop^Tg); experiment: In-vivo electrophysiology study: inducible arrhythmias by programmed electrical stimulation; design: species or system mouse
Method: An in-vivo electrophysiology study was performed in each mouse to assess atrial and ventricular conduction, refractoriness, and arrhythmia inducibility. Surface ECG recordings and complete in vivo electrophysiological studies (EPS) were obtained from Hop^Tg mice (14-18 weeks old), age-matched non-transgenic littermates and TSA-treated Hop^Tg mice. Each mouse was anesthetized with pentobarbital ([…] IP), and multi-lead ECGs were obtained using 26-gauge subcutaneous electrodes. Temperature was maintained at 32-33° C. A jugular vein cutdown was performed and an octapolar 2-French electrode catheter (CIBer mouse-EP; NuMED, Inc) placed in the right atrium and ventricle under electrogram guidance to confirm catheter position. A programmed digital stimulator (DTU-215A, Bloom Associates Ltd) was used to deliver electrical impulses at approximately twice diastolic threshold. […] ECG channels were filtered from 0.5 to 250 Hz and intracardiac electrograms were filtered from 5 to 400 Hz. ECG intervals were measured by two independent observers blinded to the animal's genotype.
The PR, QRS, RR, and QT intervals were measured in 6 surface-limb ECG leads by 2 independent observers, who were both blinded to the animals' genotype. Intracardiac recordings were obtained during identical pacing and programmed electrical stimulation protocols for all mice by experienced investigators.
Trichostatin A 0.6 mg/kg daily in a volume of 0.2 mL was given by intraperitoneal injection for 14 consecutive days prior to cardiac electrical stimulation in Hop transgenic mice (Hop^Tg) compared with wild-type controls (WT).
Ventricular programmed electrical stimulation induced similar numbers and durations of ventricular tachycardia in 3 of 11 Hop^Tg mice compared to 4 of 12 control mice (P=NS).

[2] = system: Hop transgenic mice (Hop^Tg); experiment: Invasive hemodynamic measurements; assay type: in vivo, mouse; details: for Effect upon LVEDP, systolic contraction (peak positive dP/dt) and diastolic relaxation (peak negative dP/dt), in words: TSA-Hop^Tg vs Hop^Tg, treatment initiated at 12-14 weeks of age
Method: Hop^Tg mice 14-18 weeks old were compared with wild-type littermates and TSA treated Hop^Tg mice. Anesthesia was induced with 3% isoflurane and maintained by ventilation with 0.75% isoflurane. Temperature was maintained at 36-37° C. Intracardiac pressures were recorded using a 1.4 French micromanometer catheter (Micro-Tip SPR-671; Millar Instruments) that was zeroed prior to making measurements on each animal in a saline bath. The catheter was inserted via the right carotid artery to record intracardiac pressures and digitized at 2-kHz using a PowerLab/16 SP A/D converter (ADInstruments Ltd.).
(§1) Trichostatin A 0.6 mg/kg daily in a volume of 0.2 mL was given by intraperitoneal injection for 14 consecutive days upon inducible atrial arrhythmias and atrial structurally remodeling in an engineered mouse model with left ventricular hypertrophy and inducible atrial fibrillation. Transgenic mice over-expressing the homeodomain-only protein (Hop^Tg), which promotes cardiac hypertrophy and interstitial fibrosis, were divided into three groups: control, Hop^Tg mice and Hop^Tg mice treated with trichostatin A.
(§2) Hop^Tg mice had higher left ventricular end-diastolic pressure (LVEDP), and reduced peak systolic contraction and diastolic relaxation compared to WT mice. However, trichostatin A had no effect upon the LVEDP, systolic contraction or diastolic relaxation when treatment was initiated in animals aged 12-14 weeks of age. These parameters were similar between Hop^Tg and TSA-Hop^Tg mice, though still abnormal when compared to WT mice. In addition, the heart weight to tibia length ratio (HW/TL) was higher in Hop^Tg and TSA-Hop^Tg mice compared to WT, but there was no difference in the HW/TL between Hop^Tg and TSA-Hop^Tg mice. *P<0.05 compared to WT; ^†P<0.05 compared to TSA-Hop^Tg.

[3] = system: Hop transgenic mice (HopX^Tg); experiment: Morphometric analysis of hearts (heart weight, atrial weight ratios); assay type: in vivo, mouse; details: for Heart weight to tibia length ratio (HW/TL), in words: TSA-Hop^Tg vs Hop^Tg mice
Method: as §1, §2

[4] = system: HopX^Tg mice; experiment: Echocardiographic analysis of ventricular structure and function; assay type: in vivo, mouse
Method: To better characterize the effects of TSA upon ventricular structure and function, echocardiographic analysis of HopX^Tg, TSA-HopX^Tg and WT mice was performed. […] However, TSA had no effect upon these parameters as ventricular wall thickness and systolic function were similar between HopX^Tg and TSA-HopX^Tg mice (Table 4), consistent with the hemodynamic analysis of these animals.

[5] = system: Hop transgenic mice (Hop^Tg); experiment: Masson's trichrome staining for collagen as marker of fibrosis; assay type: in vivo, mouse; details: FIG. 1; for Atrial fibrosis (in words): TSA-treated Hop transgenic mice vs untreated
Method: Hearts were excised from, washed in 37° C. Dulbecco's 1×PBS, arrested in 50 mmol/L KCl, and fixed in 4% formalin. Fixed hearts were cut transversely and sectioned serially from ventricular apex to base. Two sections (5 μm each) were retained at the beginning of each 50-μm step. Sections were stained with Masson's trichrome stain for collagen as a marker of fibrosis. Quantification of the proportion of fibrosis in each heart was then performed with scientific imaging software (Image-J, National Institutes of Health)) and high-resolution serial scanning technique. Histological sections from the entire left ventricle and both atrium were used for analysis from three different hearts.
as §1

[6] = system: activated TGF-β1; experiment: Western blot of atrium: activated TGF-β1; assay type: in vivo, mouse; details: TSA-Hop^Tg mice relative to Hop^Tg, FIG. 2E
Method: (§3) Adult mouse atrium and ventricle were dissected and homogenized in buffer containing 1% Igepal surfactant, 0.5% deoxycholate sodium, 2% SDS, 5 mmol EDTA (pH=7.4), 1% protease inhibitor cocktail tablet (Roche) with and without phosphatase inhibitor cocktail (Sigma-Aldrich). Samples were cleared of debris by centrifugation at 5000 g for 10 min. and the protein concentration was determined using a BCA protein assay kit (Pierce). Protein samples were run on a 4-12% gradient pre-cast SDS-PAGE gel (Invitrogen), and after electrophoresis were transferred onto PVDF membranes (Millipore) using 0.1% acetic acid/10% methanol as a transfer buffer. Membranes were incubated with primary antibodies in 5% milk and PBS overnight at 4° C. and then washed for 5 min, 4 times with TBS-T solution. […] Results were visualized by enhanced chemiluminescence using a commercially available kit (Western Breeze, Invitrogen) and data were recorded on BioMax-MR film (Kodak, Rochester, N.Y.). Densitometry was determined using the Image-J software package (National Institutes of Health). […]

[7] = system: phospho-ERK1/2; experiment: Western blot of atrium: phospho-ERK1/2; assay type: in vivo, mouse; details: TSA-Hop^Tg mice relative to Hop^Tg, FIG. 2D
Method: as §3

[8] = system: phospho-JNK; experiment: Western blot of atrium: phospho-JNK; assay type: in vivo, mouse; details: between Hop^Tg, TSA-Hop^Tg or control mice, FIG. 2B
Method: as §3

[9] = system: phospho-p38-MAPK; experiment: Western blot of atrium: phospho-p38-MAPK; assay type: in vivo, mouse; details: between Hop^Tg, TSA-Hop^Tg or control mice, FIG. 2C
Method: as §3

[10] = system: connexin40; experiment: Immunoblot analysis of atrial connexin40; assay type: in vivo, mouse; details: TSA-treated Hop transgenic mice, FIG. 3A
Method: as §3

[11] = system: connexin43; experiment: Immunoblot analysis of atrial connexin43; assay type: in vivo, mouse; details: WT, Hop and TSA-Hop mice, FIG. 3B
Method: as §3

[12] = system: connexin40 and connexin43; experiment: Distribution of atrial connexins (quantitative confocal immunodetection); assay type: in vivo, mouse; details: TSA-treated Hop^Tg mice
Method: Mice were heparizined, anesthetized with pentobarbital […] and hearts excised through a sternotomy. Hearts were mounted on a Langendorf apparatus, perfused with Tyrode's solution (composition as in Ref. 21) at 3.0-3.5 milliliter [ml]/minute [min] at a temperature of 36°-37° C. Hearts were perfused with Ca^2+-free Tyrode's solution for 6 min., followed by 12-15 min. of perfusion with Ca^2+-free Tyrode's solution containing: collagenase B, collagenase D (Roche Chemical Co.) and protease (Fraction IV, Sigma Chemical Co.). […]
The area of immunoreactive signal in discrete spots from isolated atrial myocytes was quantified using laser scanning confocal microscopy. Scanning of single optical slices (<1 μm) by confocal laser scanning microscopy was done on the Leica TCS SP2 system using the spectral detection set for simultaneous fluorescence imaging of Alexa488 and DIC imaging with transmitted light to obtain the cell outline. […] Areas were quantified using the count nuclei application in the Metamorph software package (Molecular Devices). The total area of each atrial myocyte was calculated from the DIC images and the area of the connexin immunoreactive spots was calculated from the Alexa488 fluorescent images.

[13] = system: 3 week-old HopX^Tg mice; details: cited from earlier work
[14] = system: histone acetylation; details: TSA 0.6 mg/kg/day, previous studies; cited from earlier work
[15] = system: models of pressure-overload and angiotensin-induced hypertrophy; details: cited from earlier work
[16] = TSA 0.6 mg/kg daily IP 14 days, Hop^Tg mice
[17] = TSA 0.6 mg/kg daily IP 14 days, Hop^Tg mice, n = 10
[18] = TSA 0.6 mg/kg daily IP 14 days, Hop^Tg mice, n = 10, mean±SD
[19] = TSA 0.6 mg/kg daily IP 14 days, Hop^Tg mice, n = 8, mean±SD
[20] = TSA 0.6 mg/kg daily IP 14 days, HopX^Tg mice, n = 13, mean±SD
[21] = TSA-treated HopX^Tg mice, n = 4, echocardiography

CC(/C=C/C(=O)NO)=C\[C@@H](C)C(=O)c1ccc(N(C)C)cc1 [TSA, Trichostatin A]
Mice with AT [1, 16]: 2/15 | Mice with VT [1, 16]: 2/15 | Episodes AT (atrial tachycardia) [1, 17]: 5 | Episodes VT (ventricular tachycardia) [1, 17]: 4 | AT CL (atrial tachycardia cycle length) [1, 18]: 47.0 ± 7.2 ms | Duration AT [1, 18]: 0.148 ± 0.110 s | Duration VT [1, 18]: 0.89 ± 1.07 s | VT CL (ventricular tachycardia cycle length) [1, 18]: 50.4 ± 8.6 ms | Mice in which atrial programmed electrical stimulation induced atrial arrhythmia ([1]; TSA-Hop^Tg mice vs 9 of 11 Hop^Tg mice, P<0.01): 2 of 10 | Mice in which ventricular programmed electrical stimulation induced ventricular tachycardia ([1]; TSA-Hop^Tg mice vs Hop^Tg mice, P<0.05): 2 of 10 | Atrial arrhythmia inducibility (in words) ([1]; TSA-treated Hop transgenic mice vs untreated): complete reversal of atrial arrhythmia inducibility | Duration and episodes of atrial fibrillation (in words) ([1]; TSA-treated Hop^Tg mice vs untreated): reduced | Heart rate [2, 19]: 392 ± 63.5 bpm | LV end diastolic pressure [2, 19]: 7.2 ± 2.4* mmHg | LV systolic pressure [2, 19]: 90.6 ± 8.8 mmHg | Peak negative dP/dt [2, 19]: −2267 ± 1320* mmHg/s | Peak positive dP/dt [2, 19]: 6465 ± 1613 mmHg/s | Effect upon LVEDP, systolic contraction (peak positive dP/dt) and diastolic relaxation (peak negative dP/dt), in words [2]: no significant changes | Effect upon LVEDP, systolic contraction (peak positive dP/dt) and diastolic relaxation (peak negative dP/dt), in words ([2]; listed as trichostatin A): no effect | Heart weight [3, 20]: 192.8 ± 15.5* mg | Heart weight/body weight [3, 20]: 7.4 ± 0.67* mg/g | Heart weight to tibia length ratio (HW/TL), in words ([3]; 14-18 week-old): no significant changes; also recorded: no change | Heart weight to tibia length ratio (HW/TL), in words ([3]; 14-18 week-old, listed as trichostatin A): no difference | Atrial weight/tibial length ratio (AW/TL), in words ([3]; TSA-treated HopX^Tg vs HopX^Tg mice, 14-18 week-old): no significant changes; also recorded: no change | Ventricular wall thickness and systolic function, in words ([4]; TSA-HopX^Tg vs HopX^Tg mice, echocardiography): no effect | Intra-ventricle Septum [4, 21]: 1.13 ± 0.18 mm | LV Ejection Fraction [4, 21]: 87.7 ± 7.00 % | LV Fractional Shortening [4, 21]: 53.9 ± 0.50 % | Left Ventricle Posterior Wall [4, 21]: 1.10 ± 0.14 mm | Left ventricular wall dimensions, in words ([4]; older 14-18 week-old HopX^Tg mice treated with TSA): no change | Atrial fibrosis (in words) ([5]; listed as Trichostatin A): reduced | Atrial fibrosis (in words) ([5]; listed as trichostatin A): complete reversal of atrial fibrosis | Ventricular interstitial fibrosis (in words) ([5]; three groups incl. TSA-Hop): no obvious ventricular interstitial fibrosis | Activated TGF-β1 protein expression in atrium [6]: further decreased | Phospho-ERK1/2 protein expression in atrium [7]: increased | Phospho-JNK protein expression in atrium [8]: not different | Phospho-p38-MAPK protein expression in atrium [9]: not different | Atrial connexin40 expression [10]: normalized | Atrial connexin43 expression [11]: no changes | Distribution of connexin40 and connexin43 in the atrium [12]: restored | Cardiac hypertrophy, in words [13]: partially reduces | Histone acetylation in the heart, in words [14]: does augment histone acetylation | Myocardial mechanical function, in words [15]: improve
